Assay results from patent US8460900B2, “Methods to degrade sludge from pulp and paper manufacturing” (Buckman Laboratories International, Inc., priority 2010, dated 2013).

System: CELLIC® CTec enzyme
Assay: Cellulase activity of enzyme-surfactant solutions, carboxymethyl cellulose as substrate
Format: biochemical
Conditions: Table 3: 5 wt % surfactant + 10 wt % CELLIC CTec; for % Activity Increase: versus enzyme without surfactant; for Cellulase Activity (u/g): CMC substrate
Procedure: The experiments were set up for evaluating the effects of surfactants on enzymatic activity of CELLIC® CTec enzyme. The enzyme, surfactant, and water were mixed to form a solution containing 5 wt % surfactant and 10 wt % enzyme. For example, 1.0 g of CELLIC® CTec, 0.5 g of PLURONIC F108, and 8.5 g of deionized water were mixed to produce a solution containing 10 wt % enzyme and 5 wt % surfactant. The resulted enzyme-surfactant solutions were tested for cellulase activity. Carboxymethyl cellulose was used as the assay substrate. A control solution containing 10 wt % enzyme without surfactant was included for comparison.
Five PLURONIC surfactants with different HLB values are evaluated for their effects on the enzymatic activity of CELLIC® CTec in water solution. Each surfactant was mixed with the enzyme in water. The resulting solution was then assayed for cellulase activity using carboxymethyl cellulose (CMC) as the substrate. […] F108 enhanced the enzymatic activity by 22.3%.

Substance	% Activity Increase	Cellulase Activity (u/g)
Cocobis(2-hydroxyethyl)methyl ammonium chloride	6.9%	351.6 u/g
Sorbitan mono-oleate [Sorbitan mono-oleate, non-ionic]	−2.3%	321.5 u/g
Sorbitan mono-oleate ester [Sorbitan mono-oleate ester, non-ionic]	7.3%	353.1 u/g
